Key:
CD14 = assay: qPCR of CD14 mRNA in cultured keratinocytes; assay type: cell-based, human; conditions: for CD14 mRNA expression: 24 hours
Method: (§1) Cell culture and stimuli. Human keratinocytes were grown in serum-free EpiLife® cell culture media (Cascade Biologics; Portland, Oreg.) containing 0.06 mM Ca2+ and 1× EpiLife® defined growth supplement (EDGS) at 37° C. under standard tissue culture conditions. Stock cultures were maintained for up to five passages in this media with the addition of 50 U/mL penicillin and 50 μg/mL streptomycin. HaCaT keratinocytes were cultured in DMEM (Sigma, St. Louis, Mo.) with 10% FCS. Cells at 50-70% confluence were stimulated in fresh medium after preincubation with 1,25(OH)2 vitamin D3 (1,25D3; 0.1-100 nM, 4-24 h; Sigma). Alternatively, NHEK were stimulated in the presence of 1,25D3 (0.1-100 nM). Stimuli included TLR2,6 ligands Malp-2 (0.001-0.5 μg/ml; Alexis Biochemicals, Carlsbad, Calif.), FSL-1 (1-2 μg/ml, Invivogen, San Diego, Calif.) and zymosan (50 μg/ml; Invivogen), as well as flagellin (50 ng/ml; Alexis), LPS (1 μg/ml; Sigma), lipoteichoic acid (LTA; 10 μg/ml; Sigma), 19 kDA lipopeptide (10 μg/ml, a kind gift from S. Krutzik, Division of Dermatology, UCLA), CpG DNA (10 μg/ml; Sigma), Ca2+ (1.7 mM), LPS (1 μg/ml; Sigma), TNFα (20 ng/ml; Chemicon Temecula, Calif.) and TGFβ1 (0.1-1 μg/ml; R&D Systems, Minneapolis, Minn.). A TLR2 blocking antibody (αTLR2; clone TL2.1, 5 μg/ml, eBioscience, San Diego, Calif.) was utilized to investigate the role of TLR2 signaling. Furthermore, keratinocytes were pretreated with a vitamin D receptor antagonist (VDR-antagonist ZK159222 Schering AG; 10^-7M) or the CYP inhibitor itraconazole (ITRA; 10^-7M) before stimulation with TGFβ in the presence of 25OH vitamin D3 (25D3, 10 nM, Sigma).
(§2) Real-time RT-PCR (qPCR). RNA was extracted from cells, epidermal constructs or tissue using Trizol® and 1 μg RNA was reverse transcribed using iScript® (BioRad, Hercules, Calif.). Expression of cathelicidin and GAPDH was analysed by real-time RT-PCR. Predeveloped Taqman® assay probes (ABI, Foster City, Calif.) were used for the analyses of the expression of CYP24A1 (24-hydroxylase), CYP27B1 (1α-hydroxylase), CD14, CD36, TLR1, TLR2, TLR4, TLR6 and murine CD14. All analyses were performed in triplicate from 2-5 independent experiments in an ABI Prism® 7000 Sequence Detection System. Fold induction relative to the vehicle treated control in in vitro experiments was calculated using the comparative Ct method, where ΔΔCt is ΔCt(stimulant)-ΔCt(vehicle), ΔCt is Ct(gene)-Ct(GAPDH) and Ct is the cycle at which an arbitrary detection threshold is crossed. For quantification of transcript abundance in tissue samples target gene expression was normalized to GAPDH and compared to non-treated or non-injured skin.

cathelicidin = assay: qPCR of cathelicidin mRNA in cultured keratinocytes; assay type: cell-based, human
Method: as §1, §2

TLR2 = assay: qPCR of TLR2 mRNA in cultured keratinocytes; assay type: cell-based, human; conditions: for TLR2 mRNA expression: 24 hours
Method: as §1, §2

[1] = tested on: Staphylococcus aureus mprF; assay: Radial diffusion assay; assay type: cell-based; conditions: LL-37 incubated in sweat, 37° C., 6 hr
Method: Sweat collection and processing. Sweat was collected on paper tissues (Kimwipes, Kimberly-Clark, Ga.) from healthy volunteers after exercise. After collection, 20 ml of sweat was centrifuged at 2000 g for 15 min. at 4° C., filtered through a […] (Acrodisc syringe filter, 0.2 mm, low protein binding, Fisher scientific, Tustin, Calif.), and frozen at −80° C. For some experiments sweat was lyophilized to dryness, then suspended in 400 μl of distilled water (DW: cell culture grade, endotoxin free, GibcoBRL, Grand island, NY). For analysis of LL37 processing by sweat, 1.6 nmol of LL-37 synthetic peptide was incubated in 50 ml of sweat for 0, 1, 6, 24 hrs at 37° C. or 4° C. In some experiments proteinase inhibitors including; mixed protease inhibitor cocktail (1tab/10 ml, Roche, Indianapolis, Ind.), […] Bestatin, 10 mg/ml E-64, 10 mg/ml Aprotinin, (Sigma, St Louis, Mo.); 100 mM AEBSF, 100 mM Neutrophil elastase inhibitor (NEI) or 100 mM leukocyte elastase inhibitor (LEI) (Calbiochem, San Diego, Calif.) were added during incubation. After incubation, 2 ml was assayed by radial diffusion assay to determine antibacterial activity. For analysis by HPLC 32 nmoles LL-37 was incubated in 100u1. To control for potential contamination from paper tissues, parallel processing was done on tissues soaked in phosphate-buffered saline (PBS:137 mM NaCl, 2.7 mM KCL, 4.3 mM Na2HPO4-H2O, 1.4 mM KH2PO4, pH 7.4). No antimicrobial activity was detectable in these preparations. Protein concentrations were evaluated by BCA assay (protein assay reagent, Pierce, Rockford, Ill.) or Bradford protein assay (Bio-Rad, Hercules, Calif.) according to manufacture's instructions. Human tissue and blood collection was approved by the UCSD Human Research Protection Program.
Antimicrobial assays. For screening of antimicrobial activity of HPLC fractions, radial diffusion assay was used. Lyophilized HPLC fractions were dissolved in DW (GibcoBRL, Grand Island, N.Y.), and tested against Staphylococcus aureus mprF. Thin plates (1 mm) of 1% agarose in 0.5% tryptone containing approximately 1×10^6 cells/ml of S. aureus mprF were used. 1 mm wells were punched in the plates and […] of samples dissolved in tissue culture grade sterile water were loaded in each well.

acetylated histone H4 = assay: Histone H4 acetylation in keratinocytes (immunofluorescence, Western blot); assay type: cell-based, human; conditions: NHEK stimulated with butyrate or TLR ligand
Method: Panel a; Immunofluorescence staining of acetylated histone H4 protein in NHEK treated with HDACi in the presence or absence of 1,25D3. […] Panel b: Western blot of acetylated histone 4 from keratinocytes treated with the HDACi butyrate or TLR agonists. […] Bar=30 μM.
The abundance of acetylated histone was directly measured to confirm the inhibitory effects of butyrate and TSA on HDACs. […] To determine if changes in histone acetylation occur upon stimulation of keratinocytes with TLR ligands NHEK were stimulated with different TLR ligands and histone acetylation was assessed.

Staphylococcus aureus = assay: Bacterial growth inhibition (turbidity OD600) with or without carbonate; assay type: cell-based; conditions: for increase of LL-37 antimicrobial activity by carbonate containing compound: medium with 32 μM LL-37, pH 7.4, KHCO3 and Na2CO3 at 50 mM
S. aureus DmprF = assay: Antimicrobial activity of keratinocyte lysates (bacterial growth, OD600); assay type: cell-based, Staphylococcus aureus; conditions: versus unstimulated keratinocytes
Method: Panel a: NHEKs were stimulated with 1,25D3 (10^−9-10^−7 M) in the presence of the HDAC inhibitor butyrate (BUT; 2 mM) for 24 hours. mRNA abundance was determined by real-time qPCR for cathelicidin and glyceraldehyde-3-phosphate dehydrogenase and normalized to vehicle-treated controls. […] Data shown are means (7SD) of the results from a single stimulation experiment performed in triplicates and are representative of at least three independent experiments (**P<0.01; ***P<0.001; two-way analysis of variance). Panel b: The HDAC inhibitor TSA (200 ng ml^−1) induces cathelicidin in the presence of 1,25D3 (10^−8M). Expression of cathelicidin is dependent on a functional VDR, as pretreatment with the VDR antagonist ZK159222 (10^−7 M) inhibits induction of cathelicidin with BUT (2 mM) in the presence of 1,25D3 (10^−8 M) after 24 hours. Expression of cathelicidin was determined by qPCR as described in Panel a. (*P<0.05; Student's t-test). Panel c: Increased transcript correlates with enhanced cathelicidin protein expression after HDAC inhibitor and 1,25D3 stimulation. NHEKs grown on chamber slides were stimulated with the vehicle, 1,25D3 (10^−8M), BUT (2 mM), or the combination for 24 hours. Cells were stained with a polyclonal anti-LL-37 antibody (followed by an FITC-coupled secondary antibody) and nuclei detected with 4,6-diamidino-2-phenylindole (Bar=30 μM). […] NHEKs were stimulated with 1,25D3 (10^−8M) in combination with the HDAC inhibitor BUT (2 mM) for 24 hours, cells harvested and cell lysates co-incubated with S. aureus DmprF, and bacterial growth monitored over time to determine antimicrobial activity. Media not containing cell lysates or containing cell lysates from unstimulated cells were used as controls.

C. albicans = assay: Liquid assay, minimum fungicide concentration; assay type: cell-based, Candida albicans
Method: Action against the C. albicans was determined in Dixon medium (0.6% Peptone, 4% Malt Extract, 1% Glucose, 0.1% Ox Bile, 1% Tween-80) in sterile 96-well microtiter plates (Corning Inc., Corning, N.Y.) at a final volume of 50 ml. […] Microtiter plates were incubated at 37° C. for 24 h with peptides, then plated on Dixon agar to determine the MFC (minimum fungicide concentration).

[2] = tested on: wild-type S. aureus (clinical isolate); assay: Radial diffusion assay; assay type: cell-based
[3] = tested on: enteroinvasive E. coli 029; assay: Radial diffusion assay; assay type: cell-based
[4] = 25D3 (10 nM) or TGF (1 μg/ml) alone
[5] = 25D3 (10 nM) together with TGF (1 μg/ml)
[6] = pretreatment with antagonist 10^−7M
[7] = radial diffusion and solution assay

Compound: C=C1CC[C@H](O)C/C1=C/C=C1\CCC[C@]2(C)[C@@H]([C@H](C)CCCC(C)(C)O)CC[C@@H]12 [25D3, 25OH vitamin D3]
- CD14 mRNA expression (CD14; [4]): Neither 25D3 nor TGF alone affected expression
- CD14 mRNA expression (CD14; [5]): simultaneous addition induced
- cathelicidin mRNA expression (cathelicidin; 25D3 (10 nM) or TGF (1 μg/ml) alone, 24 hours): Neither 25D3 nor TGF alone affected expression
- cathelicidin mRNA expression (cathelicidin; 25D3 (10 nM) together with TGF (1 μg/ml), 24 hours): simultaneous addition induced
- TLR2 mRNA expression (TLR2; [4]): Neither 25D3 nor TGF alone affected expression
- TLR2 mRNA expression (TLR2; [5]): simultaneous addition induced

Compound: NCCc1ccc(S(=O)(=O)F)cc1 [AEBSF]
- blocking of the gain in LL-37 antimicrobial activity in sweat by protease inhibitor [1]: most effective in blocking the increase in antimicrobial activity

Compound: CCCc1nc2c(N)nc3ccccc3c2s1 [CL075]
- acetylation of histone H4 (acetylated histone H4): did not change histone acetylation

Compound: CC(C)Cn1cnc2c(N)nc3ccccc3c21 [Imiquimod]
- acetylation of histone H4 (acetylated histone H4): did not change histone acetylation

Compound: O=C([O-])O.[K+] [KHCO3]
- increase of LL-37 antimicrobial activity by carbonate containing compound (Staphylococcus aureus): also increased antimicrobial activity

Compound: O=C([O-])[O-].[Na+].[Na+] [Na2CO3]
- increase of LL-37 antimicrobial activity by carbonate containing compound (Staphylococcus aureus): also increased antimicrobial activity

Compound: CC(/C=C/C(=O)NO)=C\[C@@H](C)C(=O)c1ccc(N(C)C)cc1 [Trichostatin A]
- effect of HDAC inhibitor on 1,25D3 induced cathelicidin (cathelicidin; TSA 200 ng ml^−1 with 1,25D3 (10^−8M)): significantly increased 1,25D3 induced cathelicidin

Compound: C=C1/C(=C\C=C2/CCC[C@]3(C)[C@@H]([C@H](C)/C=C/[C@@H](O)C4(C(=O)OCCCC)CC4)CC[C@@H]23)C[C@@H](O)C[C@@H]1O [VAZ]
- block of CD14 induction by TGF plus 25D3 (CD14; [6]): blocked this effect
- effect of VDR antagonist on cathelicidin induction by HDAC inhibitor plus 1,25D3 (cathelicidin; ZK159222 10^−7 M, BUT 2 mM, 1,25D3 10^−8 M, 24 hours): decreased the capacity of the HDAC inhibitor to increase cathelicidin
- block of cathelicidin induction by TGF plus 25D3 (cathelicidin; [6]): blocked this effect
- block of TLR2 induction by TGF plus 25D3 (TLR2; [6]): blocked this effect

Compound: C=C1CC[C@H](O)C/C1=C/C=C1\CCC[C@]2(C)[C@@H]([C@H](C)CCCC(C)C)CC[C@@H]12 [Vitamin D3]
- antimicrobial activity of stimulated keratinocytes against Staphalococcus aureus (S. aureus DmprF): enhanced antimicrobial activity
- expression of cathelicidin (cathelicidin; normal human keratinocytes and HaCat cell line): induced the expression of cathelicidin

Compound: Aprotinin
- blocking of the gain in LL-37 antimicrobial activity in sweat by protease inhibitor [1]: most effective in blocking the increase in antimicrobial activity

Compound: FSL-1
- cathelicidin induction by TLR2,6 ligand (cathelicidin; in the presence of 1,25D3 (100 nM)): capable of inducing cathelicidin

Compound: Human Beta Defensin-2
- enhancement of peptide activity by 50 mM NaHCO3 (EF) (Staphylococcus aureus; 20% TSB, 10% FBS, 1 mM NaH2PO4, 150 mM NaCl, pH 7.4): enhanced

Compound: KRIVQRIKDFLRNLVPRTES [KR-20, 20 amino acid cathelicidin derivative generated from LL-37 in sweat]
- fungicidal activity against Candida albicans compared to LL-37 (C. albicans): increased fungicidal activity
- Radial Diffusion Assay, minimal inhibitory concentration (MIC), S. aureus (wt) [2]: 4 μm
- Radial Diffusion Assay, minimal inhibitory concentration (MIC), E. coli (O29)) [3]: 4 μm

Compound: PR-39: porcine cathelicidin antimicrobial peptide (RRRPRPPYLPRPRPPPFFPPRLPPRIPPGFPPRFPPRFP; UniProt P80054 131-169, looked up)
- change of minimal inhibitory concentration (MIC) by NaHCO3 (Staphylococcus aureus; 20% TSB, 1 mM NaH2PO4, with or without 50 mM NaHCO3, pH 7.4): greatly reduced

Compound: Poly(I:C)
- acetylation of histone H4 (acetylated histone H4): did not change histone acetylation

Compound: RKSKEKIGKEFKRIVQRIKDFLRNLVPRTES [RK-31, cathelicidin peptide generated from LL-37 in sweat]
- fungicidal activity against Candida albicans compared to LL-37 (C. albicans): increased fungicidal activity
- action against wild-type S. aureus compared to LL-37 [2, 7]: greatly increased action
- action against E. coli compared to LL-37 [3, 7]: greatly increased action

Compound: flagellin
- cathelicidin expression in response to TLR ligand (cathelicidin; keratinocytes pretreated with 1,25D3 0.1 nM 24 hours, then TLR ligand 24 hours): not to other TLR agonists
- acetylation of histone H4 (acetylated histone H4): did not change histone acetylation
